From ChEMBL document CHEMBL4507266, “Data for DCP probe BAY-784” (2021)

Legend:
[1] = target: Serine/threonine-protein kinase tousled-like 2 (Homo sapiens) (UniProt Q86UE8); conditions: Compound concentration 1000.0 nM
[2] = target: Peripheral plasma membrane protein CASK (Homo sapiens) (UniProt O14936); conditions: Compound concentration 1000.0 nM
[3] = target: Histamine H1 receptor (Homo sapiens) (UniProt P35367); conditions: Compound concentration 10.0 uM
[4] = target: Receptor tyrosine-protein kinase erbB-3 (Homo sapiens) (UniProt P21860); conditions: Compound concentration 1000.0 nM
[5] = target: D(1B) dopamine receptor (Homo sapiens) (UniProt P21918); conditions: Compound concentration 10.0 uM
[6] = target: Receptor tyrosine-protein kinase erbB-2 (Homo sapiens) (UniProt P04626); conditions: Compound concentration 1000.0 nM
[7] = target: Hormonally up-regulated neu tumor-associated kinase (Homo sapiens) (UniProt P57058); conditions: Compound concentration 1000.0 nM
[8] = target: Serine/threonine-protein kinase LATS1 (Homo sapiens) (UniProt O95835); conditions: Compound concentration 1000.0 nM
[9] = target: Tyrosine-protein kinase Fyn (Homo sapiens) (UniProt P06241); conditions: Compound concentration 1000.0 nM
[10] = system: Mast/stem cell growth factor receptor Kit (Homo sapiens), P10721 [L576P]; conditions: Compound concentration 1000.0 nM
[11] = target: Ribosomal protein S6 kinase alpha-1 (Homo sapiens) (UniProt Q15418); conditions: Compound concentration 1000.0 nM
[12] = system: Epidermal growth factor receptor (Homo sapiens), P00533 [T790M]; conditions: Compound concentration 1000.0 nM
[13] = target: Serine/threonine-protein kinase Nek7 (Homo sapiens) (UniProt Q8TDX7); conditions: Compound concentration 1000.0 nM
[14] = system: Receptor-type tyrosine-protein kinase FLT3 (Homo sapiens), P36888 [UNDEFINED MUTATION]; conditions: Compound concentration 1000.0 nM
[15] = target: Tyrosine-protein kinase ABL1 (Homo sapiens) (UniProt P00519); conditions: Compound concentration 1000.0 nM
[16] = target: T1, Muscarinic acetylcholine receptor M1 (Homo sapiens) (UniProt P11229); conditions: Compound concentration 10.0 uM
T1 sequence (whole entry): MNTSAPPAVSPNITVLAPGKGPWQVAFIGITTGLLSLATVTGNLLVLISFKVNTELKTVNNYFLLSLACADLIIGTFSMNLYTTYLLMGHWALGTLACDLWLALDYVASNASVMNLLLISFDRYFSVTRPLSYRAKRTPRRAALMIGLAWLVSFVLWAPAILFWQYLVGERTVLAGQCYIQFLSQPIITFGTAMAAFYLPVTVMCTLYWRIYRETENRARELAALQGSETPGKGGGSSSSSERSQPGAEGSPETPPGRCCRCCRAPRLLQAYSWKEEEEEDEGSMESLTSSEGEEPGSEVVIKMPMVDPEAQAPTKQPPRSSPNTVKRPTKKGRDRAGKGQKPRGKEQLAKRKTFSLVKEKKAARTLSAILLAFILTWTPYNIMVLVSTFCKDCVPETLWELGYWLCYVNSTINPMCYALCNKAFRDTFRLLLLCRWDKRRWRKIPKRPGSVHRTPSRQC

[17] = target: Phosphatidylinositol 5-phosphate 4-kinase type-2 beta (Homo sapiens) (UniProt P78356); conditions: Compound concentration 1000.0 nM
[18] = target: Dual specificity mitogen-activated protein kinase kinase 5 (Homo sapiens) (UniProt Q13163); conditions: Compound concentration 1000.0 nM
[19] = target: Protein kinase C iota type (Homo sapiens) (UniProt P41743); conditions: Compound concentration 1000.0 nM
[20] = target: Tyrosine-protein kinase receptor UFO (Homo sapiens) (UniProt P30530); conditions: Compound concentration 1000.0 nM
[21] = target: Dual specificity protein kinase CLK2 (Homo sapiens) (UniProt P49760); conditions: Compound concentration 1000.0 nM
[22] = target: Serine/threonine-protein kinase B-raf (Homo sapiens) (UniProt P15056); conditions: Compound concentration 1000.0 nM
[23] = system: Hepatocyte growth factor receptor (Homo sapiens), P08581 [M1250T]; conditions: Compound concentration 1000.0 nM
[24] = target: Serine/threonine-protein kinase PLK4 (Homo sapiens) (UniProt O00444); conditions: Compound concentration 1000.0 nM
[25] = target: Serine/threonine-protein kinase ULK1 (Homo sapiens) (UniProt O75385); conditions: Compound concentration 1000.0 nM
[26] = system: Receptor-type tyrosine-protein kinase FLT3 (Homo sapiens), P36888 [D835H]; conditions: Compound concentration 1000.0 nM
[27] = target: Cyclin-G-associated kinase (Homo sapiens) (UniProt O14976); conditions: Compound concentration 1000.0 nM
[28] = target: TGF-beta receptor type-2 (Homo sapiens) (UniProt P37173); conditions: Compound concentration 1000.0 nM
[29] = target: Mitogen-activated protein kinase kinase kinase 6 (Homo sapiens) (UniProt O95382); conditions: Compound concentration 1000.0 nM
[30] = target: Dual specificity mitogen-activated protein kinase kinase 6 (Homo sapiens) (UniProt P52564); conditions: Compound concentration 1000.0 nM
[31] = target: G protein-coupled receptor kinase 3 (Homo sapiens) (UniProt P35626); conditions: Compound concentration 1000.0 nM
[32] = target: Serine/threonine-protein kinase VRK2 (Homo sapiens) (UniProt Q86Y07); conditions: Compound concentration 1000.0 nM
[33] = target: Serine/threonine-protein kinase Nek5 (Homo sapiens) (UniProt Q6P3R8); conditions: Compound concentration 1000.0 nM
[34] = target: Mitogen-activated protein kinase kinase kinase 3 (Homo sapiens) (UniProt Q99759); conditions: Compound concentration 1000.0 nM
[35] = target: Homeodomain-interacting protein kinase 4 (Homo sapiens) (UniProt Q8NE63); conditions: Compound concentration 1000.0 nM
[36] = target: Mitogen-activated protein kinase 13 (Homo sapiens) (UniProt O15264); conditions: Compound concentration 1000.0 nM
[37] = system: Phosphatidylinositol 4,5-bisphosphate 3-kinase catalytic subunit alpha isoform (Homo sapiens), P42336 [C420R]; conditions: Compound concentration 1000.0 nM
[38] = target: Megakaryocyte-associated tyrosine-protein kinase (Homo sapiens) (UniProt P42679); conditions: Compound concentration 1000.0 nM
[39] = target: Calcium/calmodulin-dependent protein kinase type II subunit gamma (Homo sapiens) (UniProt Q13555); conditions: Compound concentration 1000.0 nM

Tyrosine-protein kinase ABL1 (Homo sapiens), sequence (P00519 whole entry): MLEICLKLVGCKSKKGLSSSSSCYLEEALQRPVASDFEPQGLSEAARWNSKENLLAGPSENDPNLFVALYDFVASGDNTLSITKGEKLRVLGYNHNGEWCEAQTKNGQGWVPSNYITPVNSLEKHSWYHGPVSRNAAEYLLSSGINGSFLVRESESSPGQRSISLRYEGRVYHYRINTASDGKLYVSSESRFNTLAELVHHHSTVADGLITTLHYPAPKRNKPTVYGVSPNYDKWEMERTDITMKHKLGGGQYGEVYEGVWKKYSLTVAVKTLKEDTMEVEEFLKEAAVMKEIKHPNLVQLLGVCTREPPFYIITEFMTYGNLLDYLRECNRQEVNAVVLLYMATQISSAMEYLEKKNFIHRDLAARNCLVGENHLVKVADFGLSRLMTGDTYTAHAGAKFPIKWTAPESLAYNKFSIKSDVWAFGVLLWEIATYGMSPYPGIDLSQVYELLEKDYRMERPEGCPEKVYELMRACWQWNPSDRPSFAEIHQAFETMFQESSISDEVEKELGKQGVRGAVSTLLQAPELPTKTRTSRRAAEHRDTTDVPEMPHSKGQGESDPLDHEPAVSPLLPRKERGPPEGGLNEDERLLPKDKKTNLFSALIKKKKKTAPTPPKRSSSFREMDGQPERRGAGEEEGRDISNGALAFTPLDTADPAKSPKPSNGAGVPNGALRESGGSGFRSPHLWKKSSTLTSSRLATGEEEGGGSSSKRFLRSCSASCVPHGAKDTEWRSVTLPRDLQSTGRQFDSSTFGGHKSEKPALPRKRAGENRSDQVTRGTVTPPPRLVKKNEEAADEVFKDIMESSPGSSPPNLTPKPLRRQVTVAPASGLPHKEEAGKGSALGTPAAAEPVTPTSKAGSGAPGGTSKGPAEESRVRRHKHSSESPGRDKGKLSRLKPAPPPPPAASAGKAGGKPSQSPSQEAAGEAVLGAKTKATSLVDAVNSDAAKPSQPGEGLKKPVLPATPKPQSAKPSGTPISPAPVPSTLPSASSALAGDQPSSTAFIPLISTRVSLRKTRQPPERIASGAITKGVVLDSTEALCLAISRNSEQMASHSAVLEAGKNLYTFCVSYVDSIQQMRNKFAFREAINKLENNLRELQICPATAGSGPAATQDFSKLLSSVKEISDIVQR
Dual specificity protein kinase CLK2 (Homo sapiens), sequence (P49760 whole entry, looked up): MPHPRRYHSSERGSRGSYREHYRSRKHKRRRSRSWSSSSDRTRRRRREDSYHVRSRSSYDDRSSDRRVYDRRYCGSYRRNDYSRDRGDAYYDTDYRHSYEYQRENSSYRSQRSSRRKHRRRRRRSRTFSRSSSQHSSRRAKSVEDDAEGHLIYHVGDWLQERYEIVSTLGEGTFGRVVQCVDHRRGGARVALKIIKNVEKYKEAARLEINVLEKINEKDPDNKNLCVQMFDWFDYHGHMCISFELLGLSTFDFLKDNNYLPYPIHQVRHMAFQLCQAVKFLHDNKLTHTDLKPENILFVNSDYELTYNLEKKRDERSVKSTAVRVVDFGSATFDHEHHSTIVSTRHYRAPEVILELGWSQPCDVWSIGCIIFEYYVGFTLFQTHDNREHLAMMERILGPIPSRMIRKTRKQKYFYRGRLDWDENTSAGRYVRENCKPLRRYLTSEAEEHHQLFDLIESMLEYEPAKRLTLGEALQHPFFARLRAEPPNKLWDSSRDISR
Serine/threonine-protein kinase tousled-like 2 (Homo sapiens), sequence (Q86UE8 whole entry, looked up): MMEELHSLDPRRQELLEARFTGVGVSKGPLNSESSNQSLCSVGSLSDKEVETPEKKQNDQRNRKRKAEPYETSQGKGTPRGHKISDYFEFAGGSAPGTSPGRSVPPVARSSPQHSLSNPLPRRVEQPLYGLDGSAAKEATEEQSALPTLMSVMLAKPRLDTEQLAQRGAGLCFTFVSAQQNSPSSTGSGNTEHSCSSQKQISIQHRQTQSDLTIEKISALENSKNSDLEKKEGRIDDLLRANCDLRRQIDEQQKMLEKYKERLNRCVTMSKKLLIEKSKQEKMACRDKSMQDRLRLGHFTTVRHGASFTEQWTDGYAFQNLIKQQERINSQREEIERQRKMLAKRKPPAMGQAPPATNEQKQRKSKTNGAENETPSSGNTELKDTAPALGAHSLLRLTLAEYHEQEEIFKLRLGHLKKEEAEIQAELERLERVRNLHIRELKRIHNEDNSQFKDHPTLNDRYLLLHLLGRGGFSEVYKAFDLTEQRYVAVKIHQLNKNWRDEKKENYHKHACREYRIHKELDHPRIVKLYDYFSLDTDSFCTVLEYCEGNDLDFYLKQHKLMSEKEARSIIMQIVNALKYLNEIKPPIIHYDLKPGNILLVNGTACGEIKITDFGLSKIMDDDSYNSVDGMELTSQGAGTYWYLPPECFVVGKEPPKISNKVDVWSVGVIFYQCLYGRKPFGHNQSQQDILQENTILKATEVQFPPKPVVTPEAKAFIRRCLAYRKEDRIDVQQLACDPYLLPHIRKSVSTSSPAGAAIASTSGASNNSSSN
Histamine H1 receptor (Homo sapiens), sequence (P35367 whole entry): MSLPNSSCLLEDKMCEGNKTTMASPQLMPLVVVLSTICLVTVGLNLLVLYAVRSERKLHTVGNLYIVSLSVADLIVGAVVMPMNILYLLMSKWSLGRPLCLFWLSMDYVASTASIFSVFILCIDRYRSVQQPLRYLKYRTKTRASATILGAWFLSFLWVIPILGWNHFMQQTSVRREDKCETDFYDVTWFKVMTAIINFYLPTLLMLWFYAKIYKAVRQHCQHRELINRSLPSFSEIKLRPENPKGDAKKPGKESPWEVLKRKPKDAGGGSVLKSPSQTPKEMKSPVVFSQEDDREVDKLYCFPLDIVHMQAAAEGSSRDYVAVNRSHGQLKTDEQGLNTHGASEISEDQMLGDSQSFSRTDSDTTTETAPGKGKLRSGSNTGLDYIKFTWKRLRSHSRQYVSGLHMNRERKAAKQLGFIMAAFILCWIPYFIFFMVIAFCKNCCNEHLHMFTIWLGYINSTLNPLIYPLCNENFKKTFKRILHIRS
Dual specificity mitogen-activated protein kinase kinase 6 (Homo sapiens), sequence (P52564 whole entry): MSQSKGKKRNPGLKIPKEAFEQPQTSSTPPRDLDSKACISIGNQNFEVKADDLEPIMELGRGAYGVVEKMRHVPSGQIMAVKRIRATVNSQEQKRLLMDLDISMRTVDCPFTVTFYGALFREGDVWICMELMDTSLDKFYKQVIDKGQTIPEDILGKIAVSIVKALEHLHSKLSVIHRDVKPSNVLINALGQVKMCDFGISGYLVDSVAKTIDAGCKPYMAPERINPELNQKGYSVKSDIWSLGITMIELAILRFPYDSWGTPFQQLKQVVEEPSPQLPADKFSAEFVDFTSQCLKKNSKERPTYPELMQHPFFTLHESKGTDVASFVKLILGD
Receptor tyrosine-protein kinase erbB-3 (Homo sapiens), sequence (P21860 whole entry): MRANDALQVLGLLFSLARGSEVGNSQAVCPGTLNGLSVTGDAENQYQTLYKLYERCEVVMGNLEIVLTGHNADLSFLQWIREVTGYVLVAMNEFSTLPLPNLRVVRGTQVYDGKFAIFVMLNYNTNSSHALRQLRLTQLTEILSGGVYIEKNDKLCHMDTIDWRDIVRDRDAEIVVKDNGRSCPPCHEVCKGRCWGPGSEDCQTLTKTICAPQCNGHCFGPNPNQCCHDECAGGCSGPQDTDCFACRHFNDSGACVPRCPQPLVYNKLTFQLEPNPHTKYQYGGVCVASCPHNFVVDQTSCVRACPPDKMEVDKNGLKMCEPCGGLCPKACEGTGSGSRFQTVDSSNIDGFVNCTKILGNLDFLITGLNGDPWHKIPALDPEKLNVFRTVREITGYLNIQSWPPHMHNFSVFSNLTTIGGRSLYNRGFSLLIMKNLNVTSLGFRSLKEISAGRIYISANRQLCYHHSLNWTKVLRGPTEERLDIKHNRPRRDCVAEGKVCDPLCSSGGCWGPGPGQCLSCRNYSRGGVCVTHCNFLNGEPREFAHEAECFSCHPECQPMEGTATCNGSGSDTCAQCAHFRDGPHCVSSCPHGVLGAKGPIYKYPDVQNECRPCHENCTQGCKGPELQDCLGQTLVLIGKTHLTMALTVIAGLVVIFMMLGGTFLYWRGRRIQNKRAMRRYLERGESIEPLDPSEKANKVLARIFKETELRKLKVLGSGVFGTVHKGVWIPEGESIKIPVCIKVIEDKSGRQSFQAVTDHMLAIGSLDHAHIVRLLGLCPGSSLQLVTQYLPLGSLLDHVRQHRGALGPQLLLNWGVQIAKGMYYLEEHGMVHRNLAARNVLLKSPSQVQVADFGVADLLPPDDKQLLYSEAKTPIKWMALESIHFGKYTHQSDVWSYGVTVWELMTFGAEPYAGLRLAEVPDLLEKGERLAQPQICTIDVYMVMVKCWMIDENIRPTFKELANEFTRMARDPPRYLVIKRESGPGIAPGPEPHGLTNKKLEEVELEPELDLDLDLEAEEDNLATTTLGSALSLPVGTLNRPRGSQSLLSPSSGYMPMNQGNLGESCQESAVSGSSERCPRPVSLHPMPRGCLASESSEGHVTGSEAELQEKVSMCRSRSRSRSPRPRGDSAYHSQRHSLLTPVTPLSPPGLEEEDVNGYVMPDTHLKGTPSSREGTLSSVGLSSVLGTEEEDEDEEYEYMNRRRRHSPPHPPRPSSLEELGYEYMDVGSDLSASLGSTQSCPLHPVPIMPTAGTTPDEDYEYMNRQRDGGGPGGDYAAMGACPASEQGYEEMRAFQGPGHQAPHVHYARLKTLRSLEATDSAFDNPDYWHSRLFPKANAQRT
Phosphatidylinositol 5-phosphate 4-kinase type-2 beta (Homo sapiens), sequence (P78356 whole entry): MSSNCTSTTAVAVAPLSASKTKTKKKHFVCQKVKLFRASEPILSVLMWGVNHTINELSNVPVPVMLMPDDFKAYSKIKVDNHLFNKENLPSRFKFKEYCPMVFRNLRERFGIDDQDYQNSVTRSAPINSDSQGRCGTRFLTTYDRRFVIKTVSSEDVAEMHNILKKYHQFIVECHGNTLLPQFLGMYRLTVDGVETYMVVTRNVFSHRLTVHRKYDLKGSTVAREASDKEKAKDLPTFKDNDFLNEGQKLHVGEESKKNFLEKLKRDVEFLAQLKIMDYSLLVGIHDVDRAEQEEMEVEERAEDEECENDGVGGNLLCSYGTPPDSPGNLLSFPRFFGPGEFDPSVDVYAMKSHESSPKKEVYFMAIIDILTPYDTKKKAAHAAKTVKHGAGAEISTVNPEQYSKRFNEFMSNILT

O=C(NCc1ncc(C(F)(F)F)cc1Cl)c1ccc2c(c1)C1(CCS(=O)(=O)CC1)[C@@H](C1CC1)N2S(=O)(=O)c1ccc(F)cc1 [BAY-786]
inactive: residual activity [1] 100% | residual activity [2] 64% | inhibition [3] 8.01% | residual activity [4] 100% | inhibition [5] -0.49% | residual activity [6] 100% | residual activity [7] 85% | residual activity [8] 97% | residual activity [9] 70% | residual activity [10] 76% | residual activity [11] 100% | residual activity [12] 100% | residual activity [13] 65% | residual activity [14] 79% | residual activity [15] 86% | inhibition [16] -3.7% | residual activity [17] 89% | residual activity [18] 90% | residual activity [19] 100% | residual activity [20] 100% | residual activity [21] 82% | residual activity [22] 96% | residual activity [23] 100% | residual activity [24] 92% | residual activity [25] 80% | residual activity [26] 100% | residual activity [27] 96% | residual activity [28] 71% | residual activity [29] 68% | residual activity [30] 100% | residual activity [31] 100% | residual activity [32] 98% | residual activity [33] 86% | residual activity [34] 60% | residual activity [35] 97% | residual activity [36] 86% | residual activity [37] 77% | residual activity [38] 74% | residual activity [39] 84%

O=C(NCc1ncc(C(F)(F)F)cc1Cl)c1ccc2c(c1)C1(CCS(=O)(=O)CC1)[C@H](C1CC1)N2S(=O)(=O)c1ccc(F)cc1 [BAY-784]
inactive: residual activity [1] 100% | residual activity [2] 75% | inhibition [3] 24.6% | residual activity [4] 100% | inhibition [5] 19.1% | residual activity [6] 100% | residual activity [7] 84% | residual activity [8] 91% | residual activity [9] 100% | residual activity [10] 100% | residual activity [11] 99% | residual activity [12] 100% | residual activity [13] 100% | residual activity [14] 100% | residual activity [15] 71% | inhibition [16] -2.96% | residual activity [17] 89% | residual activity [18] 69% | residual activity [19] 81% | residual activity [20] 100% | residual activity [21] 100% | residual activity [22] 91% | residual activity [23] 89% | residual activity [24] 92% | residual activity [25] 90% | residual activity [26] 92% | residual activity [27] 97% | residual activity [28] 100% | residual activity [29] 83% | residual activity [30] 100% | residual activity [31] 99% | residual activity [32] 95% | residual activity [33] 100% | residual activity [34] 74% | residual activity [35] 100% | residual activity [36] 99% | residual activity [37] 77% | residual activity [38] 73% | residual activity [39] 100%
